Measurements reported in patent US20260048145A1, “COMPOSITIONS AND METHODS FOR TREATING DRUG ADDICTION” (The Children's Medical Center Corporation, priority 2022, published 2026).

Columns and labels:
NAc Tac2+ neurons [1] = assay: Single-cell calcium imaging of Tac2+ neurons following acute cocaine injection; type: in vivo, mice; details: for recorded Tac2+ neurons showing decreased activity / recorded Tac2+ neurons showing increased activity: cocaine 15 mg/kg i.p.
From the text: To explore a potential role for Tac2^+ neurons in drug-related behavior, Tac2 neuronal activity was monitored using single-cell calcium imaging upon psychostimulant drug (cocaine) treatment. To this end, GCaMP6m, which reports calcium fluctuations and serves as a proxy for neuronal activity, was virally delivered into the NAc of Tac2-Cre mice using known techniques^41, and the fluorescence signal was monitored by a skull-attached miniaturized microscope through a gradient-index (GRIN) lens implanted above the virus injection site (FIG. 2B, FIGS. 1C-1D). […] After extracting calcium signal traces and corresponding calcium signal transients of individual neurons from raw imaging video (FIG. 2C, FIG. 1E), the Tac2 neuronal response to saline and cocaine administration was analyzed. The calcium transient frequency from 6 mice (saline: 361 neurons, cocaine 356 neurons) were sorted and presented as heatmaps (FIG. 2D). […] The neuronal activity of cocaine excited/inhibited Tac2^+ neurons in the initial phase were substantially altered following cocaine injection and later partially recovered in the decay phase (FIG. 2I). To further validate these findings, calcium activity traces were analyzed before and after saline or cocaine injection. 3.0-fold more cocaine inhibited neurons than cocaine excited neurons in the initial phase (FIGS. 1F-1H).
Two weeks after GRIN lens implantation surgery, a baseplate was implanted to mount the miniature microscope and to check the fluorescence signal. Freely moving in vivo imaging can be performed after the nVoke microscope (Inscopix) is attached to the fixed baseplate. All recordings were made at 10 frames per second, LED intensities were 0.6˜1.2 mW, and gain (1.5×) was used. The calcium traces were extracted using Inscopix Data Processing Software (version 1.6, Inscopix). The raw recording videos were cropped, spatially down-sampled (2×), spatially filtered (cut-offs: low 0.005 pixel^−1, high 0.500 pixel^−1), and motion-corrected (using a reference frame from the input movie). The spatial location of individual neurons and their associated calcium activity signals were identified using the extended constrained non-negative matrix factorization (CNMF-E) CNMF-c algorithm^53,54 and outputted temporal traces as dF over noise. The identified neurons were manually checked to exclude overlapping neurons, blood vessels, or fluorescent debris moving in and out of focus. The calcium signal traces were further deconvolved using OASIS (online active set method to infer spikes) methods to estimate underlying calcium signal transients. The data matrix containing calcium signal traces and calcium signal transients were subjected to custom MATLAB code for further analysis.
Mice were tested in the homecages and were pre-habituated in the test room and they received 3-day saline injection to reduce stress. On day 1, mice were attached with nVoke microscope 30 minutes before experiment. Prior to injection, 10 minute baseline was recorded, then mice were intraperitoneally injected with saline, and a 10 minute recording was performed after the injection. On day 2, mice were again attached with n Voke microscope, and recorded for 10 minute baseline. Then mice were injected with cocaine (15 mg/kg) intraperitoneally. The post-injection initial phase (0-10 minutes) and decay phase (50-60 minutes) were recorded. Two data sets of neuronal activity were used: calcium signal traces over time or calcium signal transients over time, to analyze treatment (saline or cocaine injection) responsive neurons (excited or inhibited by treatment), 10-minute windows of pre- and post-injection were compared. For saline injection responsive neurons, saline (−10-0 minutes) and saline (0-10 minutes) responses of the two groups were compared. For cocaine injection responsive neurons, the initial phase (0-10 minutes) and the decay phase (50-60 minutes) were compared with the pre-injection phase (−10-0 minutes). […]

NAc Tac2+ neurons [2] = assay: Single-cell calcium imaging during cocaine-conditioned place preference; type: in vivo, mice; details: post-conditioning
Protocol: Next, the dynamics of Tac2 neuronal activity was analyzed during cocaine reward-contextual association. To this end, single-cell calcium imaging was applied to a cocaine-conditioned place preference (CPP) test (FIG. 3A). In the pre-conditioning session, mice were allowed to freely explore the two chambers with differential contextual patterns while calcium signal being recorded. In the conditioning sessions, mice were given alternate saline and cocaine (15 mg/kg) injections (6 hours apart) and were confined to a specific chamber paired with saline or cocaine. In the post-conditioning session, mice were again allowed to freely explore the two chambers while calcium signal being recorded (FIG. 3A). […] After extracting the calcium signal traces, and corresponding calcium signal transients of individual neurons in pre-conditioning and post-conditioning sessions, signal traces or transient frequencies were compared during the periods when mice are in saline-coupled chamber or cocaine-coupled chamber (staying time>5 seconds). […] To further validate these findings, calcium activity traces were analyzed when mice stayed in the saline chamber or cocaine chamber. […] Moreover, by focusing on the short period around the mice entering the cocaine chamber (−5 seconds to 5 seconds, regarding the entering as 0 second), it was determined that the neuronal activity of the cocaine chamber excited neurons (neurons with […] calcium signal in cocaine chamber) increased rapidly when mice entered the cocaine chamber, while the cocaine chamber inhibited neurons (neurons with […] calcium signal in cocaine chamber) decreased their activity when mice entered the cocaine chamber (FIGS. 3F-3G).
Custom-made two-compartment CPP chambers (50×25×25 cm, L×D×H) were used with visual cues: the floor and the walls of one chamber were decorated with black horizontal stripes and the other chamber was decorated with yellow diagonal stripes. The modified cocaine-CPP consists of three sessions. […] The time spent in different chambers was recorded, the less preferred chamber was assigned as the cocaine chamber and used to condition cocaine injections, while the other chamber was assigned as the saline chamber and used to condition saline injections. […] Finally, the next day following conditioning, in the post-condition recording session, calcium activity of mice was again recorded while freely exploring the two chambers for 15 minutes. The mouse trajectories were recorded using a webcam (Logitech) with top view, and the time when the mice staying or entering chambers was analyzed using Etho Vision XT 11 (Noldus) and was also manually inspected. […]

[3] = after administration; cited from earlier work
[4] = tested on: hM3Dq-expressing Tac2+ neurons; assay: cFos induction after CNO, chemogenetic activation; type: in vivo, mice; details: CNO 2 mg/kg i.p.
Protocol: Mice were transcardially perfused with PBS followed by 4% paraformaldehyde. Brains were then placed in a 30% sucrose solution for 2 days. The brains were frozen in Optimal Cutting Temperature (OCT) embedding media and 16 μm (for FISH) or 40 μm (for IF) coronal sections were cut with a vibratome (Leica, no. CM3050 S). For FISH experiments, the slices were mounted on SuperFrost Plus slides, and air dried. The multi-color FISH experiments were performed following the instructions of RNAscope Fluorescent Multiplex Assay (ACD Bioscience). For IF, cryostat sections were collected and incubated overnight with blocking solution (1×PBS containing 5% goat serum, 2.5% BSA, and 0.1% Triton X-100), and then treated with the following primary antibodies, diluted with blocking solution, for 1 day at 4° C.: rabbit anti-cFos (1:2000, Synaptic systems, #226003), chicken anti-GFP (1:2000, Aves Labs, no. GFP-1010), and chicken anti-mCherry (1:2000, Novus Biologicals, no. NBP2-25158). Samples were then washed three times with washing buffer (1×PBS containing 0.1% Triton X-100) and incubated with the Alexa Fluor conjugated secondary antibodies for 2 h at room temperature. The sections were mounted and imaged using a Zeiss LSM800 confocal microscope or an Olympus VS120 Slide Scanning System. […]

[5] = tested on: hM4Di-expressing Tac2+ neurons; assay: cFos induction after CNO following cocaine exposure, chemogenetic inhibition; type: in vivo, mice; details: CNO 5 mg/kg i.p.
[6] = tested on: hM3Dq-expressing Tac2+ neurons; assay: Cocaine-CPP with chemogenetic excitation of Tac2+ neurons; type: in vivo; details: CNO 2 mg/kg plus cocaine 15 mg/kg; hM3Dq-expressing mice
Protocol: (§1) To this end, a Cre-dependent AAV encoding a modified human M3 muscarinic receptor (hM3Dq) was introduced into NAc of Tac2-Cre mice (FIG. 5E). […] The cocaine-CPP test was then repeated, in which mice were conditioned with cocaine plus CNO in one chamber, while with saline in the other chamber. […] To test the effect of Tac2 neuronal inhibition on cocaine-CPP, a subthreshold cocaine CPP paradigm was applied, in which mice were conditioned with a lower dose of cocaine (10 mg/kg i.p.) in a shorter conditioning session (15-minutes per session)^10,46.
(§2) A two-compartment CPP chamber was used with one compartment with grid rod style floor and the other with mesh style floor (Med Associates). Chamber size is 25×19×17 cm (L×D×H). Mice trajectories were tracked by infra-red photobeam detectors, and the travel distance and the duration the mice spent in the two compartments were recorded. […]
(§3) For hM3Dq chemogenetics experiments, the Tac2-Cre mice were conditioned for two days to saline/saline injections in one chamber in the morning, and CNO (2 mg/kg)/cocaine (15 mg/kg) injection in the other in the afternoon (30 minutes confinement, 6 hours apart). […] The time spent in the cocaine-coupled chambers was recorded, and the CPP scores were calculated by subtracting the time spent in the pre-conditioning phase from the time spent in the post-conditioning phase.

[7] = tested on: hM4Di-expressing Tac2+ neurons; assay: Subthreshold cocaine-CPP with chemogenetic inhibition of Tac2+ neurons; type: in vivo, mice; details: CNO 5 mg/kg i.p.; cocaine 10 mg/kg i.p., 15-minutes sessions
Protocol: as §1, §2, §3

[8] = tested on: Tac2+ neurons (hM3Dq / hM4Di); assay: Basal and cocaine-induced locomotion with chemogenetic manipulation of Tac2+ neurons; type: in vivo; details: CNO; hM3Dq or hM4Di mice; 1-hour post-treatment
Protocol: The experiment was conducted in an 8-chamber activity monitor system (Med Associates). Each test chamber (ENV-510 boxes) consists of a 27 cm×27 cm square base and 24-cm walls. […] Activity Monitor software (Med Associates) was used to generate trajectory maps. The distance traveled in the arena, and time spent in the center part of the arena, were recorded and analyzed. After each test session, the chambers were cleaned thoroughly with 20% ethanol.
The basal level of locomotion as well as cocaine-induced change of locomotor activity were assessed in the open field arena the same as the OFT. For chemogenetics experiments, 20 minutes after administration of either saline or CNO, mice were individually placed in the center of the test chamber, triggering the infra-red tracking system to record locomotor activity, as measured by the number of beam breaks. […] Different groups of mice were balanced across the 8 chambers to avoid potential environmental bias.

[9] = tested on: hM3Dq-expressing Tac2+ neurons; assay: Cocaine intravenous self-administration (cocaine-IVSA) with chemogenetic excitation; details: CNO 2 mg/kg
[10] = tested on: hM4Di-expressing Tac2+ neurons; assay: Cocaine intravenous self-administration (cocaine-IVSA) with chemogenetic inhibition; details: CNO 5 mg/kg
[11] = decay phase 50-60 minutes, calcium transient frequency
[12] = initial phase 0-10 minutes, calcium transient frequency, 356 neurons, 6 mice

COC(=O)[C@H]1[C@@H](OC(=O)c2ccccc2)C[C@@H]2CC[C@H]1N2C [cocaine]
initial phase cocaine excited neurons still excited in the decay phase (NAc Tac2+ neurons [1]; 29/49 neurons): 59.2% | initial phase cocaine inhibited neurons still inhibited in the decay phase (NAc Tac2+ neurons [1]; 30/117 neurons): 25.6% | recorded Tac2+ neurons showing decreased activity (NAc Tac2+ neurons [1]; [11]): 14.9% | recorded Tac2+ neurons showing increased activity (NAc Tac2+ neurons [1]; [11]): 11.5% | recorded Tac2+ neurons showing decreased activity (NAc Tac2+ neurons [1]; [12]): 32.9% | recorded Tac2+ neurons showing increased activity (NAc Tac2+ neurons [1]; [12]): 13.8% | cocaine inhibited neurons compared to cocaine excited neurons (NAc Tac2+ neurons [1]; initial phase, calcium activity traces): 3.0 fold | Tac2+ neurons inhibited by cocaine compared to those excited (NAc Tac2+ neurons [1]; initial phase, calcium transient frequency): 2.4 fold | neurons excited in the cocaine chamber (NAc Tac2+ neurons [2]; calcium activity traces, 40 of 370): 10.8% | neurons inhibited in the cocaine chamber (NAc Tac2+ neurons [2]; calcium activity traces, 59 of 370): 16.0% | Tac2+ neurons with elevated activity in the cocaine chamber (NAc Tac2+ neurons [2]; calcium transient frequency, 16 of 370): 4.3% | Tac2+ neurons with reduced activity in the cocaine chamber (NAc Tac2+ neurons [2]; calcium transient frequency, 62 of 370): 16.8% | decay of cocaine levels in brain and plasma [3]: decay one hour later | time to peak of cocaine levels in brain and plasma [3]: ≤ 10 min

C[N+]1([O-])CCN(C2=Nc3cc(Cl)ccc3Nc3ccccc32)CC1 [CNO, clozapine-N-oxide]
cFos induction in hM3Dq-expressing neurons [4]: resulted in cFos induction | cFos induction in mCherry-expressing (control) neurons [4]: not in the mCherry-expressing neurons | cFos induction in hM4Di-expressing neurons following cocaine exposure [5]: significantly decreased | cocaine-induced CPP [6]: completely abolished | cocaine CPP in hM4Di-expressing vs mCherry-expressing mice [7]: significantly higher | basal locomotion [8]: affected neither basal locomotion | cocaine-induced hyperlocomotion [8]: nor cocaine-induced hyperlocomotion | cocaine infusions, hM3Dq vs mCherry group [9]: fewer cocaine infusions | lever accuracy, hM3Dq vs mCherry group ([9]; 0.33 mg/kg/infusion): reduced lever accuracy | lever presses, hM3Dq vs mCherry group ([9]; cocaine 0.03, 0.1, 0.3, 1 mg/kg/infusion): significantly fewer lever presses | cocaine infusions, hM4Di vs mCherry group [10]: significantly lower number of cocaine infusions | lever presses, hM4Di vs mCherry group [10]: significantly higher number of lever presses | lever accuracy, hM4Di vs mCherry group ([10]; 0.33 mg/kg/infusion): comparable lever accuracy
